Test results from the NIST ThermoML archive (doi:10.1021/acs.jced.8b00202).
“And” between values parts separate entries of the source, which are not always exact repeats. Equal values may be shown once.

Details: Frequency=8 MHz, Dual path-length method

CC(C)C [2-methylpropane]
Details	speed of sound
300 K, 50138 kPa, Liquid	1240.1 m/s
300 K, 60144 kPa, Liquid	1297.7 m/s
300 K, 70151 kPa, Liquid	1350.8 m/s
300 K, 80158 kPa, Liquid	1400.3 m/s
300 K, 90165 kPa, Liquid	1446.7 m/s
300 K, 100172 kPa, Liquid	1490.4 m/s
300.01 K, 2103.9 kPa, Liquid	831.02 m/s
319.99 K, 40132 kPa, Liquid	1106.5 m/s
319.99 K, 45135 kPa, Liquid	1140.9 m/s
320 K, 1103.3 kPa, Liquid	702.16 m/s
320 K, 1103.7 kPa, Liquid	702.18 m/s
320 K, 1105.9 kPa, Liquid	702.16 m/s
320 K, 2106.5 kPa, Liquid	719.58 m/s
320 K, 3107.1 kPa, Liquid	736.11 m/s
320 K, 5106.2 kPa, Liquid	766.91 m/s
320 K, 5106.5 kPa, Liquid	766.92 m/s
320 K, 5108.3 kPa, Liquid	766.9 m/s
320 K, 6108.3 kPa, Liquid	781.34 m/s
320 K, 7109 kPa, Liquid	795.23 m/s
320 K, 8109.8 kPa, Liquid	808.64 m/s
320 K, 9110.4 kPa, Liquid	821.6 m/s
320 K, 10109 kPa, Liquid	834.15 m/s
320 K, 10110 kPa, Liquid	834.16 m/s and 834.15 m/s
320 K, 15114 kPa, Liquid	891.73 m/s
320 K, 17616 kPa, Liquid	917.89 m/s
320 K, 20118 kPa, Liquid	942.65 m/s
320 K, 25121 kPa, Liquid	988.67 m/s
320 K, 30123 kPa, Liquid	1030.8 m/s
320 K, 30124 kPa, Liquid	1030.9 m/s
320 K, 35128 kPa, Liquid	1070 m/s
320 K, 50136 kPa, Liquid	1173.5 m/s
320 K, 50139 kPa, Liquid	1173.5 m/s
320 K, 60146 kPa, Liquid	1234 m/s
320 K, 70153 kPa, Liquid	1289.5 m/s
320 K, 80160 kPa, Liquid	1340.8 m/s
320 K, 90167 kPa, Liquid	1388.9 m/s
320 K, 100174 kPa, Liquid	1434 m/s
320.01 K, 12612 kPa, Liquid	863.87 m/s
340 K, 2104 kPa, Liquid	604.55 m/s
340 K, 2104.2 kPa, Liquid	604.63 m/s
340 K, 3104.8 kPa, Liquid	625.77 m/s
340 K, 4105.5 kPa, Liquid	645.52 m/s
340 K, 5106 kPa, Liquid	664.1 m/s
340 K, 5106.2 kPa, Liquid	664.04 m/s
340 K, 6106.7 kPa, Liquid	681.52 m/s
340 K, 7107.5 kPa, Liquid	698.12 m/s
340 K, 8108.3 kPa, Liquid	713.94 m/s
340 K, 9109.1 kPa, Liquid	729.07 m/s
340 K, 10109 kPa, Liquid	743.63 m/s
340 K, 10110 kPa, Liquid	743.59 m/s
340 K, 12612 kPa, Liquid	777.6 m/s
340 K, 15113 kPa, Liquid	808.91 m/s
340 K, 17616 kPa, Liquid	838.02 m/s
340 K, 20118 kPa, Liquid	865.3 m/s
340 K, 25121 kPa, Liquid	915.43 m/s
340 K, 30123 kPa, Liquid	960.88 m/s
340 K, 30125 kPa, Liquid	960.87 m/s
340 K, 35128 kPa, Liquid	1002.6 m/s
340 K, 40130 kPa, Liquid	1041.4 m/s
340 K, 40132 kPa, Liquid	1041.4 m/s
340 K, 45135 kPa, Liquid	1077.7 m/s
340 K, 50140 kPa, Liquid	1112 m/s
340 K, 60147 kPa, Liquid	1175.2 m/s
340 K, 70154 kPa, Liquid	1232.9 m/s
340 K, 80159 kPa, Liquid	1286 m/s
340 K, 90166 kPa, Liquid	1335.6 m/s
340 K, 100173 kPa, Liquid	1382.1 m/s
360 K, 2104.4 kPa, Liquid	480.04 m/s
360 K, 3105.2 kPa, Liquid	509.76 m/s
360 K, 4105.9 kPa, Liquid	536.09 m/s
360 K, 5104.5 kPa, Liquid	559.92 m/s
360 K, 5104.9 kPa, Liquid	559.91 m/s
360 K, 6107.2 kPa, Liquid	581.76 m/s
360 K, 7108 kPa, Liquid	602.06 m/s
360 K, 8109.7 kPa, Liquid	621.09 m/s
360 K, 9110.4 kPa, Liquid	639 m/s
360 K, 10108 kPa, Liquid	655.98 m/s
360 K, 10111 kPa, Liquid	655.99 m/s
360 K, 12613 kPa, Liquid	695.08 m/s
360 K, 15114 kPa, Liquid	730.38 m/s
360 K, 17616 kPa, Liquid	762.73 m/s
360 K, 20118 kPa, Liquid	792.71 m/s
360 K, 25121 kPa, Liquid	847.15 m/s
360 K, 30125 kPa, Liquid	895.9 m/s
360 K, 35128 kPa, Liquid	940.3 m/s
360 K, 40132 kPa, Liquid	981.26 m/s
360 K, 45135 kPa, Liquid	1019.4 m/s
360 K, 50136 kPa, Liquid	1055.2 m/s
360 K, 50137 kPa, Liquid	1055.2 m/s
360 K, 50138 kPa, Liquid	1055.2 m/s
360 K, 60146 kPa, Liquid	1121 m/s
360 K, 70152 kPa, Liquid	1180.7 m/s
360 K, 80159 kPa, Liquid	1235.6 m/s
360 K, 90166 kPa, Liquid	1286.5 m/s
360 K, 100173 kPa, Liquid	1334.2 m/s
380 K, 3104.5 kPa, Liquid	378.47 m/s
380 K, 3604.1 kPa, Liquid	399.56 m/s
380 K, 4105.2 kPa, Liquid	418.49 m/s
380 K, 5105.8 kPa, Liquid	451.63 m/s
380 K, 6106.5 kPa, Liquid	480.42 m/s
380 K, 7107.2 kPa, Liquid	506.13 m/s
380 K, 8107.8 kPa, Liquid	529.51 m/s
380 K, 8109.6 kPa, Liquid	529.52 m/s
380 K, 9107.5 kPa, Liquid	551.1 m/s
380 K, 9107.9 kPa, Liquid	551.06 m/s
380 K, 10108 kPa, Liquid	571.15 m/s
380 K, 10111 kPa, Liquid	571.16 m/s
380 K, 12610 kPa, Liquid	616.32 m/s
380 K, 15112 kPa, Liquid	656.14 m/s
380 K, 15114 kPa, Liquid	656.15 m/s
380 K, 17614 kPa, Liquid	692.04 m/s
380 K, 20115 kPa, Liquid	724.92 m/s
380 K, 20116 kPa, Liquid	724.9 m/s
380 K, 25120 kPa, Liquid	783.75 m/s
380 K, 25121 kPa, Liquid	783.75 m/s
380 K, 30123 kPa, Liquid	835.78 m/s
380 K, 35127 kPa, Liquid	882.76 m/s
380 K, 40130 kPa, Liquid	925.81 m/s
380 K, 45134 kPa, Liquid	965.68 m/s
380 K, 50137 kPa, Liquid	1003 m/s
380 K, 60144 kPa, Liquid	1071.2 m/s
380 K, 70152 kPa, Liquid	1132.8 m/s
380 K, 80160 kPa, Liquid	1189.2 m/s
380 K, 90167 kPa, Liquid	1241.4 m/s
380 K, 100174 kPa, Liquid	1290.2 m/s
380.01 K, 20115 kPa, Liquid	724.92 m/s
380.01 K, 50136 kPa, Liquid	1002.9 m/s
400 K, 4606.1 kPa, Liquid	309.14 m/s
400 K, 5106.4 kPa, Liquid	334.25 m/s
400 K, 6107.2 kPa, Liquid	375.6 m/s
400 K, 7108.1 kPa, Liquid	409.76 m/s
400 K, 8108.8 kPa, Liquid	439.33 m/s
400 K, 8109.3 kPa, Liquid	439.33 m/s
400 K, 9109.5 kPa, Liquid	465.69 m/s
400 K, 10110 kPa, Liquid	489.63 m/s
400 K, 10111 kPa, Liquid	489.63 m/s
400 K, 12612 kPa, Liquid	541.93 m/s
400 K, 15114 kPa, Liquid	586.71 m/s and 586.72 m/s
400 K, 17616 kPa, Liquid	626.34 m/s
400 K, 20117 kPa, Liquid	662.12 m/s
400 K, 25122 kPa, Liquid	725.35 m/s
400 K, 30126 kPa, Liquid	780.54 m/s
400 K, 35129 kPa, Liquid	829.95 m/s
400 K, 40132 kPa, Liquid	874.94 m/s
400 K, 45136 kPa, Liquid	916.42 m/s
400 K, 50139 kPa, Liquid	955.05 m/s
400 K, 60146 kPa, Liquid	1025.5 m/s
400 K, 70153 kPa, Liquid	1088.7 m/s
400 K, 80160 kPa, Liquid	1146.5 m/s
400 K, 90167 kPa, Liquid	1199.9 m/s
400 K, 100174 kPa, Liquid	1249.7 m/s
420 K, 6107.4 kPa, Gas	266.66 m/s
420 K, 7108.4 kPa, Gas	314.01 m/s
420 K, 8109.2 kPa, Gas	351.95 m/s
420 K, 9110 kPa, Gas	384.27 m/s
420 K, 10111 kPa, Gas	412.72 m/s
420 K, 12613 kPa, Gas	472.84 m/s
420 K, 15115 kPa, Gas	522.73 m/s
420 K, 17617 kPa, Gas	566.03 m/s
420 K, 20119 kPa, Gas	604.64 m/s
420 K, 25122 kPa, Gas	671.99 m/s
420 K, 30126 kPa, Gas	730.1 m/s
420 K, 35129 kPa, Gas	781.73 m/s
420 K, 40133 kPa, Gas	828.47 m/s
420 K, 45136 kPa, Gas	871.4 m/s
420 K, 50140 kPa, Gas	911.24 m/s
420 K, 60146 kPa, Gas	983.6 m/s
420 K, 70153 kPa, Gas	1048.4 m/s
420 K, 80160 kPa, Gas	1107.4 m/s
420 K, 90167 kPa, Gas	1161.8 m/s
420 K, 100174 kPa, Gas	1212.4 m/s
